Assay results taken from patent US8088890B2, “Peptides and peptidomimetic compounds, the manufacturing thereof as well as their use for preparing a therapeutically and/or preventively active pharmaceutical composition” (Fibrex Medical Research & Development GmbH, priority 2008, dated 2012).

Test system: RhoA
Assay: thrombin induced RhoA activation in human umbilical vein endothelial cell (HUVEC) culture (Rho pull-down, Western blot)
Type: cell-based
Details: 5 U/ml thrombin alone, 5 min
Protocol: The biological effect of the compounds was established in a model thrombin induced RhoA activation in human umbilical vein endothelial cell (HUVEC) culture.
HUVEC are grown to confluence under standard conditions. Before induction of Rho activity HUVEC were starved for 4 h by using IMDM (Gibco) without growth factor and serum supplements. After the starvation period 5 U/ml Thrombin (Calbiochem) or 5 U thrombin plus 50 μg/ml of test compound are added to the starvation medium for 1, 5 and 10 min. Active RhoA was isolated using Rho Assay Reagent from Upstate according to manufactures instructions. Isolates were separated on a 15% polyacrylamide gel and blotted on Nitrocellulose-Membrane (Bio-Rad). RhoA was detected by using Anti-Rho (-A, -B, -C), clone55 from Upstate (1:500).

thrombin was tested, and the “Relative RhoA stimulation compared to unstimulated control” value was 6.2.
